Measurements reported in US20230250096A1, “SUBSTITUTED PHENYL-1H-PYRROLO[2,3-c] PYRIDINE DERIVATIVES” (Janssen Pharmaceutica NV, priority 2021, published 2023).

Experiments:
Assay type in all cases: cell-based, human
MEIS1 mRNA expression = MEIS1 mRNA expression assay (Quantigene Singleplex) in MOLM14 cells; settings: Homo sapiens, MOLM-14, 48 h, 48 hours incubation
Procedure, shortened: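 Read-out: MEIS1 transcript counts, background-subtracted and divided by RPL28, expressed as fold change over DMSO-treated cells, then dose-response modelled for IC50. MOLM14 cells (3,750/well) received graded compound for 48 h before lysis and QuantiGene hybridization at 55 °C.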

KO-52 cells = test: Proliferation assay (spheroid confluence, 8 days), KO-52 control cell line; settings: Homo sapiens, read-out: spheroid assay_KO-52 IC50
Procedure, shortened: (§1)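 Absolute IC50 derived from spheroid confluence imaged on day 8, scaled between DMSO (0%) and a cytotoxic low control such as 1 μM staurosporin, fitted with variable slope, bounds fixed at 0 and 100%. Seeding 200 cells/well (300 for KO-52), ultra-low attachment plates, 0.3% DMSO, 37° C.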

MOLM14 cells = test: Proliferation assay (spheroid confluence, 8 days), MOLM14; settings: Homo sapiens, MOLM-14, MOLM14; read-out: spheroid assay_MOLM14 IC50
Procedure, shortened: as §1

OCI-AML3 cells = test: Proliferation assay (spheroid confluence, 8 days), OCI-AML3; settings: Homo sapiens, OCI-AML-3, OCI-AML3; read-out: spheroid assay_OCI-AML3 IC50
Description: The anti-proliferative effect of menin/MLL protein/protein interaction inhibitor test compounds was assessed in human leukemia cell lines. The cell line MOLM14 harbors a MLL translocation and expresses the MLL fusion protein MLL-AF9, respectively, as well as the wildtype protein from the second allele. OCI-AML3 cells that carry the NPM1c gene mutation were also tested. […] KO-52 was used as a control cell line containing two MLL (KMT2A) wildtype alleles in order to exclude compounds that display general cytotoxic effects.
MOLM14 cells were cultured in RPMI-1640 (Sigma Aldrich) supplemented with 10% heat-inactivated fetal bovine serum (HyClone), 2 mM L-glutamine (Sigma Aldrich) and 50 μg/ml gentamycin (Gibco). KO-52 and OCI-AML3 cell lines were propagated in alpha-MEM (Sigma Aldrich) supplemented with 20% heat-inactivated fetal bovine serum (HyClone), 2 mM L-glutamine (Sigma Aldrich) and 50 μg/ml gentamycin (Gibco).
In order to assess the anti-proliferative effects, 200 MOLM14 cells, 200 OCI-AML3 cells or 300 KO-52 cells were seeded in 200 μl media per well in 96-well round bottom, ultra-low attachment plates (Costar, catalogue number 7007). Cell seeding numbers were chosen based on growth curves to ensure linear growth throughout the experiment. Test compounds were added at different concentrations and the DMSO content was normalized to 0.3%. Cells were incubated for 8 days at 37° C. and 5% CO2. Spheroid like growth was measured in real-time by live-cell imaging (IncuCyteZOOM, Essenbio, 4×objective) acquiring images at day 8. Confluence (%) as a measure of spheroid size was determined using an integrated analysis tool.
In order to determine the effect of the test compounds over time, the confluence in each well as a measure of spheroid size, was calculated. Confluence of the highest dose of a reference compound was used as baseline for the LC (Low control) and the confluence of DMSO treated cells was used as 0% cytotoxicity (High Control, HC).
Absolute IC50 values were calculated as percent change in confluence as follows:
LC=Low Control: cells treated with e.g. 1 μM of the cytotoxic agent staurosporin, or e.g. cells treated with a high concentration of an alternative reference compound
HC=High Control: Mean confluence (%) (DMSO treated cells)
% Effect=100−(100*(Sample−LC)/(HC−LC))
GraphPad Prism (version 7.00) was used to calculate the IC50. Dose-response equation was used for the plot of % Effect vs Log10 compound concentration with a variable slope and fixing the maximum to 100% and the minimum to 0%.

Question: With `CCN(C(=O)c1cc(F)ccc1-n1cc(CC2CN(C(C(C)C)[C@H]3C[C@@H](N4C[C@H]5CN(C(C)=O)C[C@@H]5C4)C3)C2)c2c(C)cncc21)C(C)C` (mixture of isomers) [Compound 38a] as the compound, how does the IC50 (MEIS1 mRNA expression) read?
Answer: 6 nM

Question: And the IC50 (KO-52 cells)?
Answer: 0.8 µM

Question: What about the IC50 (MOLM14 cells) of the same compound?
Answer: < 1.8 nM

Question: `Cc1cncc2c1c(C[C@H]1CCN(C(C)C3CCOCC3)C1)cn2-c1ccc(F)cc1C(=O)N(C)C(C)C` (mixture of isomers) [Compound 49] was tested. Which IC50 (MEIS1 mRNA expression) did it give?
Answer: 17 nM

Question: And the IC50 (KO-52 cells)?
Answer: 3 µM

Question: What about the IC50 (MOLM14 cells) of the same compound?
Answer: 3 nM

Question: How did the IC50 (MEIS1 mRNA expression) turn out when `CC(=O)N1CCN([C@H]2C[C@@H]([C@@H](C(C)C)N3CC(Cc4cn(-c5ccc(F)cc5C(=O)N(C)C(C)C)c5cncc(C)c45)C3)C2)CC1` (single isomer, unassigned) [Compound 32a] was run?
Answer: 22 nM

Question: And the IC50 (KO-52 cells)?
Answer: 5.5 µM

Question: What about the IC50 (MOLM14 cells) of the same compound?
Answer: 5 nM

Question: Which results are given for `CC(=O)N1C[C@@H]2CN([C@H]3C[C@@H]([C@@H](C(C)C)N4CC(Cc5cn(-c6ccc(F)cc6C(=O)N(C)C(C)C)c6cncc(Cl)c56)C4)C3)C[C@H]2C1` (single isomer, unassigned) [Compound 39a]?
Answer: IC50 (MEIS1 mRNA expression): 5 nM; IC50 (KO-52 cells): > 15 µM; IC50 (MOLM14 cells): 2 nM

Question: What does the source list for `Cc1cncc2c1c(C[C@@H]1CCN(CC3CCOCC3)C1)cn2-c1ccc(F)cc1C(=O)N(C)C(C)C` (single isomer, unassigned) [Compound 42]?
Answer: IC50 (MEIS1 mRNA expression): 45 nM; IC50 (KO-52 cells): 2.8 µM; IC50 (MOLM14 cells): 31 nM

Question: `Cc1cncc2c1c(C[C@H]1CCN(CC3CCOCC3)C1)cn2-c1ccc(F)cc1C(=O)N(C)C(C)C` (single isomer, unassigned) [Compound 43] was tested. Which IC50 (MEIS1 mRNA expression) did it give?
Answer: 24 nM

Question: What about the IC50 (KO-52 cells) of the same compound?
Answer: 3.3 µM

Question: What about the IC50 (MOLM14 cells) of the same compound?
Answer: 14 nM

Question: And the IC50 (OCI-AML3 cells)?
Answer: 23 nM

Question: `Cc1cncc2c1c(C[C@@H]1CCN(CC(C)C)C1)cn2-c1ccc(F)cc1C(=O)N(C)C(C)C` (single isomer, unassigned) [Compound 44] was tested. Which IC50 (MEIS1 mRNA expression) did it give?
Answer: 43 nM

Question: And the IC50 (KO-52 cells)?
Answer: 4.7 µM

Question: What about the IC50 (MOLM14 cells) of the same compound?
Answer: 71 nM

Question: Which results are given for `Cc1cncc2c1c(C[C@H]1CCN(CC(C)C)C1)cn2-c1ccc(F)cc1C(=O)N(C)C(C)C` (single isomer, unassigned) [Compound 45]?
Answer: IC50 (MEIS1 mRNA expression): 56 nM; IC50 (KO-52 cells): 6.2 µM; IC50 (MOLM14 cells): 53 nM

Question: Which results are given for `Cc1cncc2c1c(C[C@H]1CCN([C@@H](C)C3CCOCC3)C1)cn2-c1ccc(F)cc1C(=O)N(C)C(C)C` (single isomer, unassigned) [Compound 49b]?
Answer: IC50 (MEIS1 mRNA expression): 9 nM; IC50 (KO-52 cells): 4.1 µM; IC50 (MOLM14 cells): 3 nM; IC50 (OCI-AML3 cells): 7 nM

Question: Which IC50 (MEIS1 mRNA expression) does the source give for `CC(=O)N1CCC(CN2CC[C@@H](Cc3cn(-c4ccc(F)cc4C(=O)N(C)C(C)C)c4cncc(C)c34)C2)CC1` (single isomer, unassigned) [Compound 50] here?
Answer: 89 nM

Question: And the IC50 (KO-52 cells)?
Answer: 2.3 µM

Question: And the IC50 (MOLM14 cells)?
Answer: 39 nM

Question: Which results are given for `COCC(=O)N1CCC(CN2CCC(Cc3cn(-c4ccc(F)cc4C(=O)N(C)C(C)C)c4cncc(C)c34)C2)CC1` (single isomer, unassigned) [Compound 59]?
Answer: IC50 (MEIS1 mRNA expression): 9 nM; IC50 (KO-52 cells): 2.1 µM; IC50 (MOLM14 cells): 11 nM; IC50 (OCI-AML3 cells): 12 nM

Question: What does the source list for `Cc1cncc2c1c(CC1CCN(CC3CCN(C(=O)CC#N)CC3)C1)cn2-c1ccc(F)cc1C(=O)N(C)C(C)C` (single isomer, unassigned) [Compound 60]?
Answer: IC50 (MEIS1 mRNA expression): 7 nM; IC50 (KO-52 cells): 2.7 µM; IC50 (MOLM14 cells): 13 nM; IC50 (OCI-AML3 cells): 13 nM

Question: What does the source list for `Cc1cncc2c1c(C[C@H]1CCN(C[C@H]3CC[C@H](NS(C)(=O)=O)CC3)C1)cn2-c1ccc(F)cc1C(=O)N(C)C(C)C` (single isomer, unassigned) [Compound 69]?
Answer: IC50 (MEIS1 mRNA expression): 17 nM; IC50 (KO-52 cells): 11 µM; IC50 (MOLM14 cells): 5 nM; IC50 (OCI-AML3 cells): 21 nM
